One series relates to human serum proteins. The series can be described thus: Serum protein (albumin) binding by ultrafiltration, human serum. Type of series: in vitro ADME. Particulars: 37° C. As for the experimental part: The devices were pre-treated with PBS containing Tween 20 (5% v/v) as disclosed in Hausner 2007, followed by triplicate rinses with PBS. An aliquot of each formulated radiotracer in PBS (≤25 μL, 20-60 KBq) was thoroughly mixed with 0.5 mL serum at 37° C. in a microfuge tube. The mixture was incubated at 37° C. for 5 min and an aliquot (50 μL) of was transferred to a tube for γ-counting. The remaining sample was transferred to a Centrifree Ultrafiltration device and centrifuged for 40 min. at 1500×g at ambient temperature (20-24° C.). An aliquot (50 μL) of the filtrate was transferred to a tube for γ-counting. For each radiotracer, a blank was run using 0.5 mL PBS/Tween 20 (5% v/v) instead of serum (n=4) to determine non-specific binding. Following γ-counting, the protein-bound radioactivity was calculated by subtracting the counts measured in the filtrate aliquot (i.e., not protein bound) from the counts in the corresponding serum aliquot. The data are expressed as mean±standard deviation of fraction of radioactivity bound to protein after subtraction of non-specific binding determined in the blank.

Series [1] deals with locally advanced, unresectable or metastatic pancreatic adenocarcinoma. The series can be described thus: Single institution pilot study, 3+3 dose escalation. Type of series: in vivo, human. Conditions: individual patients. From the text:
Patients first underwent a single microdose of [^68Ga]Ga DOTA-5G PET/CT to assess eligibility for the [^177Lu]Lu DOTA-ABM-5G therapy. Only patients with sufficient lesion uptake (any visualized lesion with SUVmax>2-fold above normal lung or liver) were offered therapy with [^177Lu]Lu DOTA-ABM-5G. The study was designed as a 3+3 dose escalation study with [^177Lu]Lu DOTA-ABM-5G. The treatment regimen consisted of one dose of [^177Lu]Lu DOTA-ABM-5G. The 3+3 design included three patients for the first activity level group (25 mCi) (see Table 4, below). Dose-limiting toxicity (DLT) is defined as any treatment related AE≥grade 3 (G3). In addition, the radiation dose to the kidneys must not exceed 23 Gy and the dose to the bone marrow must not exceed 1.5 Gy. If no DLT occurs within 30 days (after the third patient), 3 patients were then enrolled at the next dose level. Should a patient not be available for complete evaluation of treatment related toxicity within the 30 day DLT window due to non-treatment related issues, the patient was replaced for the purpose of DLT assessment at the same dose level. If DLT attributable to the study treatment is experienced in exactly ⅓ subjects in the first course, 3 more patients (for a total of 6) are treated at that dose level. The dose was escalated if no additional DLT is observed at the expanded dose level (i.e., ⅙ with DLT). Escalation stops as soon as two or more subjects experience DLT attributable to the study drugs. The highest dose (200 mCi limit) with no more than one DLT out of six patients is recommended for Phase II. The radiation dose to the kidneys must not exceed 23 Gy and the dose to the bone marrow must not exceed 1.5 Gy.
Patients deemed eligible based on the [^68Ga]Ga DOTA-5GPET/CT were scheduled to receive one dose of the [^177Lu]Lu DOTA-ABM-5G therapy within 4 weeks (±7 days) of the [^68Ga]Ga DOTA-5G scan. […] For renal protection purpose, a 4-hour co-infusion of an amino acid solution (containing L-lysine [between 18 g and 24 g] and L-arginine [between 18 g and 24 g] was started 30 minutes prior to the infusion of [^177Lu]Lu DOTA-ABM-5G and continued at a constant rate (250 cc/hr) for a total of 4 hours. The patient was monitored for one hour after completion of the amino acid solution infusion. Administration of the amino acid solution before, during and after the [^177Lu]Lu DOTA-ABM-5G therapy was based on experience with Lu-177 DOTATATE to flush the radionuclide through the proximal tubules and decrease the radiation dose to the kidneys. […]
The biodistribution and dosimetry was evaluated using nuclear imaging at 1 day and 7 days post-infusion of [^177Lu]Lu DOTA-ABM-5G. […]

Series [2] deals with integrin αvβ6(+) BxPC-3 cells. The series can be described thus: Cell binding, internalization and efflux. Particulars: 37° C.

The results in this text go back to patent US12649008B2, “Peptide receptor radionuclide therapy” (The Regents of the University of California, priority 2020, dated 2026).

“Also recorded” adds a separate entry of the source.

`CNC(=O)C(CCCCNC(=O)C(CC(=O)O)NC(=O)CCCNC(=O)CCCc1ccc(I)cc1)NC(=O)CN1CCN2CCN3CCN(CC1)CC(=O)[O][177Lu]([O]C(=O)C2)[O]C(=O)C3` (centres unmarked) [[^177Lu]Lu DOTA-ABM-5G]: in the series with human serum proteins, the “albumin (serum protein) binding” value is on record as 58.1±0.4%. Besides, in series [1] (Dose Level 1 (25 mCi)), the Current status entry is recorded as “alive, increase in metastatic; also recorded: alive, stable disease; also recorded: Deceased (patient deteriorated” and the “Renal function over 90 days” value is “no change”. For the same compound, in series [1] (Dose Level 2 (50 mCi)), the Current status entry is on record as “alive, no evidence of liver; also recorded: alive” and the “Renal function over 90 days” value is recorded as “no change”. Besides, in series [2] (1 h), the “bound to BxPC-3 cells (of total radioactivity)” value is recorded as 29±1.4% and the “internalized into BxPC-3 cells (of total radioactivity)” value is 21.6±0.01%. The “efflux from BxPC-3 cells” value in series [2] (at 1 hour post-internalization) is 5%.
